Experimental data: the supplement of paper PMC10307832

Tests used:
Test in all cases: relative viability (nuclei count vs DMSO), 5 days (fraction); higher = more cells survive
[1] = compound: Cc1cc([C@@H](C)Nc2ccccc2C(=O)O)c2nc(N3CCOCC3)cc(=O)n2c1 [AZD6482] + Cc1cc(Nc2cc(N3CCN(C)CC3)nc(Sc3ccc(NC(=O)C4CC4)cc3)n2)n[nH]1 [Tozasertib] (partner 0.1 µM)
Outline: (§1)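 Medians of duplicate plates are given as relative viability. That measure is the nuclei count in treated wells divided by the count in vehicle wells. Counts were taken on 4× images of lung cancer cell lines in 1536-well plates, 5 days after pin-tool dosing the day after seeding with one drug alone or a fixed anchor-drug dose plus five library-drug doses (not always all listed) in √10 steps.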

[2] = compound: COc1cc2nc(N3CCCN(C)CC3)nc(NC3CCN(Cc4ccccc4)CC3)c2cc1OC + CC(=O)c1c(C)c2cnc(Nc3ccc(N4CCNCC4)cn3)nc2n(C2CCCC2)c1=O [Palbociclib] (partner 0.5 µM)
Outline: as §1

[3] = compound: Cc1cc([C@@H](C)Nc2ccccc2C(=O)O)c2nc(N3CCOCC3)cc(=O)n2c1 [AZD6482] + CCNC(=O)c1noc(-c2cc(C(C)C)c(O)cc2O)c1-c1ccc(CN2CCOCC2)cc1 [Luminespib] (partner 0.01 µM)
Outline: as §1

[4] = compound: COc1cc2nc(N3CCCN(C)CC3)nc(NC3CCN(Cc4ccccc4)CC3)c2cc1OC + CS(=O)(=O)CCNCc1ccc(-c2ccc3ncnc(Nc4ccc(OCc5cccc(F)c5)c(Cl)c4)c3c2)o1 [Lapatinib] (partner 2 µM)
Outline: as §1

UMC-11
relative viability ([1]; first compound 0.08 µM): 0.19
relative viability ([1]; first compound 0.253 µM): 0.209
relative viability ([1]; first compound 0.8 µM): 0.186
relative viability ([1]; first compound 2.53 µM): 0.23
relative viability ([1]; first compound 8 µM): 0.201
relative viability ([2]; first compound 0.2 µM): 0.374
relative viability ([2]; first compound 0.6325 µM): 0.389
relative viability ([2]; first compound 2 µM): 0.317
relative viability ([2]; first compound 6.325 µM): 0.259
relative viability ([3]; first compound 0.08 µM): 0.986
relative viability ([3]; first compound 0.253 µM): 0.994
relative viability ([3]; first compound 0.8 µM): 0.929
relative viability ([3]; first compound 2.53 µM): 0.869
relative viability ([3]; first compound 8 µM): 1.26
relative viability ([4]; first compound 0.2 µM): 0.93
relative viability ([4]; first compound 0.6325 µM): 1.12
relative viability ([4]; first compound 2 µM): 1.03
relative viability ([4]; first compound 6.325 µM): 0.656
